Laboratory results from article PMC8821502, “Engineering a feedback inhibition-insensitive plant dihydrodipicolinate synthase to increase lysine content in Camelina sativa seeds” (Transgenic Research, 2021).

Experiments:
Assay in all cases: o-aminobenzaldehyde colorimetric DHDPS assay, […] nm
Type in all cases: biochemical
CgDHDPS = target: T1, CgDHDPS (Corynebacterium glutamicum, UniProt P19808); conditions: 2 mM L-ASA, 35 mM pyruvate, pH 8, 37 °C; E. coli extract
T1 construct: gene dapA; ORF (301 aa) in pUC18; E. coli cell extract, not purified
T1 sequence (P19808 1-301): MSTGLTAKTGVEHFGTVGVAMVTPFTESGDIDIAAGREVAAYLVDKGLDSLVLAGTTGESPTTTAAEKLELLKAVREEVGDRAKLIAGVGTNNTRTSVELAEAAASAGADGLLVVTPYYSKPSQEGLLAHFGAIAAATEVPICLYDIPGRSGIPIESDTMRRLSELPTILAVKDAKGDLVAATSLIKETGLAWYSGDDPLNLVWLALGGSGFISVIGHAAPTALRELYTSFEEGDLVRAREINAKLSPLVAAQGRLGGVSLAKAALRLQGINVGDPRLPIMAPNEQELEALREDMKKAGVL

CsDHDPS B6 (wt CsDHDPS) [1] = target: T2, CsDHDPS B6 (wt CsDHDPS) (Camelina sativa, UniProt A0ABM0Z9P4); conditions: 2 mM L-ASA, 35 mM pyruvate, pH 8, 37 °C; E. coli extract
T2 construct: gene LOC104788368; ORF (365 aa, includes predicted 38-aa chloroplast transit peptide) in pUC18 in-frame with LacZ start codon; E. coli cell extract, not purified; modelled as tetramer

CsDHDPS B6 (wt CsDHDPS) [2] = target: T2, CsDHDPS B6 (wt CsDHDPS); conditions: read-out: % activity remaining at 25 μM lysine

T2 sequence (A0ABM0Z9P4 entry or part of it): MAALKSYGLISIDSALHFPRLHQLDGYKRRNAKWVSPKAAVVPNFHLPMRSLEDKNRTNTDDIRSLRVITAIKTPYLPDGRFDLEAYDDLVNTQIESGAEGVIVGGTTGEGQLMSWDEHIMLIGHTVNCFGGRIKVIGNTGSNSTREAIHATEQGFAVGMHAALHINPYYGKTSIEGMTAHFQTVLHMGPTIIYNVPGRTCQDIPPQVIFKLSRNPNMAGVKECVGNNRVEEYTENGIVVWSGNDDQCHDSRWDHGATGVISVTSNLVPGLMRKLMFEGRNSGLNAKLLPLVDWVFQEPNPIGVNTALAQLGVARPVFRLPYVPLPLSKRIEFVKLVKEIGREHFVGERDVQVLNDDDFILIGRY

| SMILES | o-aminobenzaldehyde colorimetric DHDPS assay, 520 nm (CgDHDPS) | o-aminobenzaldehyde colorimetric DHDPS assay, 520 nm (CsDHDPS B6 (wt CsDHDPS) [1]) | remaining activity at 25 µM (CsDHDPS B6 (wt CsDHDPS) [2]) |
| --- | --- | --- | --- |
| N[C@@H](CC=O)C(=O)O [L-aspartic-β-semi-aldehyde] | using L-aspartic-β-semi-aldehyde (L-ASA) as the substrate | using L-aspartic-β-semi-aldehyde (L-ASA) as the substrate |  |
| NCCCC[C@H](N)C(=O)O [lysine] |  |  | 20% |
